Laboratory results taken from patent US11053204B2, “Pyrimidinyloxy benzene derivatives as herbicides” (FMC Corporation, priority 2015, dated 2021).

What was measured:
Type in all cases: in vivo
[1] = tested on: sedge, umbrella (small-flower umbrella sedge, Cyperus difformis); assay: Test B flooded paddy test, plant response rating; settings: 250 g ai/ha; Flood; scale of 0 to 100 where 0 is no effect and 100 is complete control; 13 to 15 days
In short: (§1)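 Flooded 3 cm over soil; compound into paddy water; depth kept constant. Greenhouse 13–15 d.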

[2] = tested on: ducksalad (Heteranthera limosa); assay: Test B flooded paddy test, plant response rating; settings: 250 g ai/ha; Flood; scale of 0 to 100 where 0 is no effect and 100 is complete control; 13 to 15 days
In short: as §1

rice (Oryza sativa) = assay: Test B flooded paddy test, plant response rating; settings: 250 g ai/ha; Flood; scale of 0 to 100 where 0 is no effect and 100 is complete control; 13 to 15 days
In short: as §1

[3] = tested on: barnyardgrass (Echinochloa crus-galli); assay: Test B flooded paddy test, plant response rating; settings: 250 g ai/ha; Flood; scale of 0 to 100 where 0 is no effect and 100 is complete control; 13 to 15 days
In short: as §1

[4] = tested on: giant foxtail (Setaria faberii); assay: Test A preemergence, visual injury rating
In short: (§2)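 Compounds in non-phytotoxic solvent with surfactant applied as soil spray preemergence, or postemergence to plants 2-10 cm at one- to two-leaf stage, in loam/sand. After approximately 10 days in greenhouse, injury rated visually versus untreated controls, 0 (no effect) to 100 (complete control).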

[5] = tested on: ragweed (common ragweed, Ambrosia elatior); assay: Test A preemergence, visual injury rating
In short: as §2

[6] = tested on: barnyardgrass (Echinochloa crus-galli); assay: Test A preemergence, visual injury rating
In short: as §2

[7] = tested on: pigweed (Amaranthus retroflexus); assay: Test A preemergence, visual injury rating
In short: as §2

[8] = tested on: Italian ryegrass (Lolium multiflorum); assay: Test A preemergence, visual injury rating
In short: as §2

kochia (Kochia scoparia) [9] = assay: Test A preemergence, visual injury rating
In short: as §2

[10] = tested on: giant foxtail (Setaria faberii); assay: Test A postemergence, visual injury rating
In short: as §2

[11] = tested on: blackgrass (Alopecurus myosuroides); assay: Test A postemergence, visual injury rating
In short: as §2

[12] = tested on: ragweed (common ragweed, Ambrosia elatior); assay: Test A postemergence, visual injury rating
In short: as §2

[13] = tested on: barnyardgrass (Echinochloa crus-galli); assay: Test A postemergence, visual injury rating; settings: 0 is no effect, 100 is complete control; for Barnyardgrass plant response rating: 0 to 100 scale, approximately 10 days
In short: as §2

[14] = tested on: pigweed (Amaranthus retroflexus); assay: Test A postemergence, visual injury rating
In short: as §2

[15] = tested on: wheat (Triticum aestivum); assay: Test A postemergence, visual injury rating
In short: as §2

[16] = tested on: Italian ryegrass (Lolium multiflorum); assay: Test A postemergence, visual injury rating
In short: as §2

[17] = tested on: galium (catchweed bedstraw, Galium aparine); assay: Test A postemergence, visual injury rating
In short: as §2

kochia (Kochia scoparia) [18] = assay: Test A postemergence, visual injury rating
In short: as §2

corn (Zea mays) = assay: Test A postemergence, visual injury rating
In short: as §2

[19] = 125 g ai/ha, 0 to 100 scale (0 no effect, 100 complete control)
[20] = 500 g ai/ha, 0 to 100 scale (0 no effect, 100 complete control)
[21] = 125 g ai/ha, 0 is no effect, 100 is complete control
[22] = 500 g ai/ha, 0 is no effect, 100 is complete control
[23] = 31 g ai/ha, 0 to 100 scale, 0 no effect, 100 complete control
[24] = 31 g ai/ha, 0 to 100 scale, 0 is no effect, 100 is complete control, approximately 10 days
[25] = 31 g ai/ha, 0 to 100 scale (0 no effect, 100 complete control)
[26] = 125 g ai/ha, 0 to 100 scale, 0 is no effect, 100 is complete control, approximately 10 days

CN(OCC(F)(F)F)C(=O)c1c(Br)cccc1Oc1ncc(Cl)cn1 [Compound 25]
50: Kochia plant response rating (kochia (Kochia scoparia) [9]; [20]) | Galium plant response rating (0 to 100 scale) [17, 22] | Kochia plant response rating (0 to 100 scale) (kochia (Kochia scoparia) [18]; [22])
80: Pigweed plant response rating [7, 20]
20: Ragweed plant response rating (0 to 100 scale) [12, 22] | Galium plant response rating (0 to 100 scale) [17, 21] | Corn plant response rating (0 to 100 scale) (corn (Zea mays); [22])
60: Foxtail, Giant plant response rating [4, 20] | Pigweed plant response rating (0 to 100 scale) [14, 22]
10: Foxtail, Giant plant response rating [4, 19] | Foxtail, Giant plant response rating (0 to 100 scale) [10, 22] | Ragweed plant response rating (0 to 100 scale) [12, 21] | Barnyardgrass plant response rating (0 to 100 scale) ([13]; 500 g ai/ha) | Wheat plant response rating (0 to 100 scale) [15, 22] | Kochia plant response rating (0 to 100 scale) (kochia (Kochia scoparia) [18]; [21])
40: Pigweed plant response rating [7, 19]
30: Barnyardgrass plant response rating [6, 20] | Blackgrass plant response rating (0 to 100 scale) [11, 22] | Pigweed plant response rating (0 to 100 scale) [14, 21]
0: Plant response rating, Sedge, Umbrella [1] | Plant response rating, Ducksalad [2] | Plant response rating, Rice (rice (Oryza sativa)) | Plant response rating, Barnyardgrass [3] | Ragweed plant response rating [5, 19] | Ragweed plant response rating [5, 20] | Barnyardgrass plant response rating [6, 19] | Ryegrass, Italian plant response rating [8, 19] | Ryegrass, Italian plant response rating [8, 20] | Kochia plant response rating (kochia (Kochia scoparia) [9]; [19]) | Foxtail, Giant plant response rating (0 to 100 scale) [10, 21] | Blackgrass plant response rating (0 to 100 scale) [11, 21] | Barnyardgrass plant response rating (0 to 100 scale) ([13]; 125 g ai/ha) | Wheat plant response rating (0 to 100 scale) [15, 21] | Ryegrass, Italian plant response rating (0 to 100 scale) [16, 21] | Ryegrass, Italian plant response rating (0 to 100 scale) [16, 22] | Corn plant response rating (0 to 100 scale) (corn (Zea mays); [21])

C=C(C)COC(=O)c1c(Br)cccc1Oc1ncc(Cl)cn1 [Compound 3]
20: Barnyardgrass plant response rating ([13]; 31 g ai/ha)
0: Plant response rating, Rice (rice (Oryza sativa)) | Plant response rating, Barnyardgrass [3] | Plant response rating, Ragweed [5, 23] | Ragweed plant response rating [5, 19] | Plant response rating, Ryegrass, Italian [8, 23] | Plant response rating, Kochia (kochia (Kochia scoparia) [9]; [23]) | Blackgrass plant response rating [11, 24] | Ragweed plant response rating [12, 24] | Ragweed plant response rating (0 to 100 scale) [12, 21] | Wheat plant response rating [15, 24] | Wheat plant response rating (0 to 100 scale) [15, 21] | Ryegrass, Italian plant response rating [16, 24] | Kochia plant response rating (kochia (Kochia scoparia) [18]; [24]) | Corn plant response rating (corn (Zea mays); [24])
100: Plant response rating, Sedge, Umbrella [1] | Foxtail, Giant plant response rating [4, 19] | Pigweed plant response rating [7, 19] | Pigweed plant response rating (0 to 100 scale) [14, 21]
60: Plant response rating, Barnyardgrass [6, 23] | Barnyardgrass plant response rating (0 to 100 scale) ([13]; 125 g ai/ha)
30: Plant response rating, Ducksalad [2] | Ryegrass, Italian plant response rating [8, 19] | Foxtail, Giant plant response rating [10, 24] | Blackgrass plant response rating (0 to 100 scale) [11, 21] | Ryegrass, Italian plant response rating (0 to 100 scale) [16, 21] | Corn plant response rating (0 to 100 scale) (corn (Zea mays); [21])
40: Kochia plant response rating (kochia (Kochia scoparia) [9]; [19]) | Galium plant response rating [17, 24] | Kochia plant response rating (0 to 100 scale) (kochia (Kochia scoparia) [18]; [21])
70: Plant response rating, Foxtail, Giant [4, 23] | Pigweed plant response rating [14, 24] | Galium plant response rating (0 to 100 scale) [17, 21]
80: Barnyardgrass plant response rating [6, 19] | Foxtail, Giant plant response rating (0 to 100 scale) [10, 21]
50: Plant response rating, Pigweed [7, 23]

O=C(OCCCl)c1c(Br)cccc1Oc1ncc(Cl)cn1 [Compound 46]
50: Plant response rating, Pigweed [7, 23] | Galium plant response rating [17, 24]
70: Kochia plant response rating (kochia (Kochia scoparia) [9]; [19]) | Galium plant response rating (0 to 100 scale) [17, 21]
75: Plant response rating, Ducksalad [2]
60: Pigweed plant response rating [14, 24]
40: Plant response rating, Foxtail, Giant [4, 23] | Foxtail, Giant plant response rating (0 to 100 scale) [10, 21]
0: Plant response rating, Barnyardgrass [3] | Plant response rating, Ragweed [5, 23] | Ragweed plant response rating [5, 19] | Plant response rating, Barnyardgrass [6, 23] | Plant response rating, Ryegrass, Italian [8, 23] | Ryegrass, Italian plant response rating [8, 19] | Plant response rating, Kochia (kochia (Kochia scoparia) [9]; [23]) | Foxtail, Giant plant response rating [10, 24] | Blackgrass plant response rating [11, 24] | Blackgrass plant response rating (0 to 100 scale) [11, 21] | Ragweed plant response rating [12, 24] | Ragweed plant response rating (0 to 100 scale) [12, 21] | Barnyardgrass plant response rating ([13]; 31 g ai/ha) | Wheat plant response rating [15, 24] | Wheat plant response rating (0 to 100 scale) [15, 21] | Ryegrass, Italian plant response rating [16, 24] | Ryegrass, Italian plant response rating (0 to 100 scale) [16, 21] | Corn plant response rating (corn (Zea mays); [24])
30: Barnyardgrass plant response rating (0 to 100 scale) ([13]; 125 g ai/ha) | Kochia plant response rating (kochia (Kochia scoparia) [18]; [24])
10: Plant response rating, Rice (rice (Oryza sativa)) | Corn plant response rating (0 to 100 scale) (corn (Zea mays); [21])
20: Barnyardgrass plant response rating [6, 19]
90: Kochia plant response rating (0 to 100 scale) (kochia (Kochia scoparia) [18]; [21])
100: Foxtail, Giant plant response rating [4, 19] | Pigweed plant response rating [7, 19] | Pigweed plant response rating (0 to 100 scale) [14, 21]
80: Plant response rating, Sedge, Umbrella [1]

CCCCC(C#N)c1ccccc1Oc1ncc(Cl)cn1 (stereo not drawn) [Compound 129]
80: Plant response rating, Sedge, Umbrella [1] | Blackgrass plant response rating [11, 26]
90: Plant response rating, Ducksalad [2] | Plant response rating, Pigweed [7, 23] | Galium plant response rating [17, 26]
10: Wheat plant response rating [15, 26]
40: Plant response rating, Rice (rice (Oryza sativa)) | Kochia plant response rating (kochia (Kochia scoparia) [18]; [25])
60: Plant response rating, Ryegrass, Italian [8, 19] | Ryegrass, Italian plant response rating [16, 26]
45: Plant response rating, Barnyardgrass [3]
30: Plant response rating, Kochia (kochia (Kochia scoparia) [9]; [23]) | Galium plant response rating [17, 25]
70: Plant response rating, Barnyardgrass [6, 23] | Pigweed plant response rating [14, 26]
20: Plant response rating, Ryegrass, Italian [8, 23] | Foxtail, Giant plant response rating [10, 25] | Blackgrass plant response rating [11, 25] | Barnyardgrass plant response rating ([13]; 31 g ai/ha) | Pigweed plant response rating [14, 25] | Corn plant response rating (corn (Zea mays); [25]) | Corn plant response rating (corn (Zea mays); [26])
0: Plant response rating, Ragweed [5, 23] | Plant response rating, Ragweed [5, 19] | Ragweed plant response rating [12, 25] | Ragweed plant response rating [12, 26] | Wheat plant response rating [15, 25] | Ryegrass, Italian plant response rating [16, 25]
100: Plant response rating, Foxtail, Giant [4, 23] | Plant response rating, Foxtail, Giant [4, 19] | Plant response rating, Barnyardgrass [6, 19] | Plant response rating, Pigweed [7, 19] | Plant response rating, Kochia (kochia (Kochia scoparia) [9]; [19]) | Foxtail, Giant plant response rating [10, 26] | Barnyardgrass plant response rating ([13]; 125 g ai/ha) | Kochia plant response rating (kochia (Kochia scoparia) [18]; [26])
